Experimental data from patent US7183445B2, “Cyclohexyl derivatives as selective estrogen receptor modulators” (Janssen Pharmaceutica N.V, priority 2004, dated 2007).
“And” between values parts separate entries of the source, which are not always exact repeats. Equal values may be shown once. Read-outs that look alike come from different tables or passages of the source.

How the values were obtained:
[1] = biological target: T1, human estrogen receptor α (Homo sapiens, UniProt P03372); test: Estrogen Receptor α Flash Plate Assay; conditions: displacement of radio-labeled estrogen, FlashPlate; read-out: ERα Binding IC50
T1 construct: purchased Panvera
T1 sequence (P03372 1-595): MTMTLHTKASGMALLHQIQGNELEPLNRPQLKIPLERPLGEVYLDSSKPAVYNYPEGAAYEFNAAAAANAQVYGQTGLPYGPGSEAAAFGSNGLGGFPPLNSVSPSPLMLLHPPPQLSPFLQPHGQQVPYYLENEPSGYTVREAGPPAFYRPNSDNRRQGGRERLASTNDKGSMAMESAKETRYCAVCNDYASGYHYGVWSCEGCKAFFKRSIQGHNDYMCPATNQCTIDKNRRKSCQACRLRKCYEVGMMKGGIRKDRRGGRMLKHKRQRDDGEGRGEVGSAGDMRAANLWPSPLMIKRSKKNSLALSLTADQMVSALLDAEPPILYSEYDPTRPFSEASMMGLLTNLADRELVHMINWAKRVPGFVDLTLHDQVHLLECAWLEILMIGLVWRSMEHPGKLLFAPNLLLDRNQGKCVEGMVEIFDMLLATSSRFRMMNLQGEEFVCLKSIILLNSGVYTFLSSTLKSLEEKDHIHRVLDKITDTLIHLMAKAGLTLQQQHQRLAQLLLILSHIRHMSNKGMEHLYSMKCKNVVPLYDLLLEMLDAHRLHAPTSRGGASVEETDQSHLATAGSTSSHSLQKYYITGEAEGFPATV
Description: Estrogen Receptor α Flash Plate Assay
This assay monitors binding of radio-labeled estrogen to the estrogen receptor. It is performed on a BioMek 2000 (Beckman). Plates are read in a scintillation counter (Packard TopCount), with decreased counts an indication of binding of a compound to the receptor. The assay was run according to the procedure described by Allan, et al., Anal. Biochem. (1999), 275(2), 243–247.
On day one, 100 μL of Estrogen Screening Buffer (ESB, Panvera) containing 5 mM dithiothreitol (DTT, Panvera), 0.5 μg mouse anti-estrogen receptor monoclonal antibody (SRA-1010, Stressgen) and 50 ng purified human estrogen receptor α (Panvera) were added to each well of a 96 well FlashPlate Plus plate crosslinked with goat anti-mouse antibodies (NEN Life Sciences). The plate was sealed and incubated at 4° C. overnight.
On day two, each well was washed three times with 200 μL PBS, pH 7.2, at room temperature. To each well was then added 98 μL radio-labeled estrogen (0.5 nM, which equals 6 nCi for a 120 Ci/mmol batch, Amersham), diluted in ESB and 5 mM dithiothreitol (DTT). To individual wells were then added 2.5 μL test compound diluted in 30% (v/v) dimethyl sulfoxide/50 mM HEPES, pH 7.5. The wells were mixed three times by aspiration, the plate sealed and incubated at room temperature for one hour. The wells were then counted for 1 min in a TopCount scintillation counter (Packard).
(§1) Representative compound of the present invention were tested according to the procedure described above for binding to the Estrogen Receptor α and Estrogen Receptor β, with results as listed in Table 6.

hER-β = biological target: T2, hER-β (Homo sapiens, UniProt Q92731); test: Estrogen Receptor β Fluorescence Polarization Assay; conditions: displacement of Fluormone ES2, fluorescence polarization; read-out: ERβ Binding IC50
T2 construct: purchased Panvera
Description: Estrogen Receptor β Fluorescence Polarization Assay
This assay monitors binding of a fluorescent analog of estrogen (Fluormone ES2, Panvera) to the estrogen receptor. Plates are read in a fluorometer that can be set to polarization mode. A decrease in […] relative to vehicle control is an indication of binding of a compound to the receptor.
It is crucial to avoid introduction of air bubbles into the reaction in each well of the 96 well plate throughout this procedure. (Bubbles on the surface of the reaction disrupt light flow, affecting the polarization reading.) However, it is also crucial to effectively mix the reaction components upon addition to the well.
On ice, a 2× standard mixture of Assay Buffer (Panvera), 10 nM DTT and 40 nM ES2 was prepared. On ice, a 2× reaction mixture of Assay Buffer (Panvera), and 20 nM hER-β (Panvera) and 40 nM ES2 was also prepared.
Dilutions of test compound were prepared in 30% (v/v) dimethyl sulfoxide/50 mM HEPES, pH 7.5. At this point, the dilutions were 40× the final required concentration.
The standard mixture at 50 μL was then added to each well. The reaction mixture at 48 μL was added to all wells. The compound dilution at 2.5 μL was added to the appropriate wells. The reaction mixtures were mixed using a manual pipette, a roll of aluminum foil adhesive cover was placed on the plate and the plate incubated at room temperature for 1 hour.
Each well on the plate was then read in an LjL Analyst with an excitation wavelength of […] and an emission wavelength of 538.
as §1

MCF-7 cells = test: MCF-7 Cell Proliferation Assay; format: cell-based
Description: MCF-7 Cell Proliferation Assay
This assay was run according to the procedure described by Welshons, et al., (Breast Cancer Res. Treat., 1987, 10(2), 169–75), with minor modification.
Briefly, MCF-7 cells (from Dr. C. Jordan, Northwestern University) were maintained in RPMI 1640 phenol red free medium (Gibco) in 10% FBS (Hyclone), supplemented with bovine insulin and non-essential amino acid (Sigma). The cells were initially treated with 4-hydroxytamoxifen (10^−8 M) and let stand at 37° C. for 24 hours. Following this incubation with tamoxifen, the cells were treated with compounds at various concentrations.
Compounds to be tested in the agonist mode were added to the culture media at varying concentrations. Compounds to be treated in the antagonist mode were prepared similarly, and 10 nM 17β-estradiol was also added to the culture media. The cells were incubated for 24 hours at 37° C. Following this incubation, 0.1 μCi of ^14C-thymidine (56mCi/mmol, Amersham) was added to the culture media and the cells were incubated for an additional 24 hours at 37° C. The cells were then washed twice with Hank's buffered salt solution (HBSS) (Gibco) and counted with a scintillation counter. The increase in the ^14C-thymidine in the compound treated cells relative to the vehicle control cells were reported as percent increase in cell proliferation.
(§2) Representative compound of the present invention were tested according to the procedure described in Examples 14 and 15 above, with results as listed in Table. 7.

[2] = system: Human Endometrial Ishikawa Cells; test: Alkaline Phosphatase Assay in Human Endometrial Ishikawa Cells; format: cell-based; conditions: for EC50: read-out: Ishikawa Agonist EC50; for IC50: read-out: Ishikawa Antagonist IC50
Description: Alkaline Phosphatase Assay in Human Endometrial Ishikawa Cells
This assay was run according to the procedure described by Albert et a., Cancer Res, […], 50(11), 330-6-10, with minor modification.
Ishikawa cells (from ATCC) were maintained in DMEM/F12 (1:1) phenol red free medium (Gibco) supplemented with 10% calf serum (Hyclone). 24 hours prior to testing, the medium was changed to DMEM/F12 (1:1) phenol red free containing 2% calf serum.
Compounds to be tested in the agonist mode were added to the culture media at varying concentrations. Compounds to be treated in the antagonist mode were prepared similarly, and 10 nM 17β-estradiol was also added to the culture media. The cells were then incubated at 37° C. for 3 days. On the fourth day, the media was remove, 1 volume of 1× Dilution Buffer (Clontech) was added to the well followed by addition of 1 volume of Assay Buffer (Clontech). The cells were then incubated at room temperature for 5 minutes. 1 volume of freshly prepared Chemiluminescence Buffer (1 volume of chemiluminescent substrate (CSPD) in 19 volume Chemiluminescent Enhancer with final concentration of CSPD at 1.25 mM; Sigma Chemical Co.) was added. The cells were incubated at room temperature for 10 minutes and then quantified on a luminometer. The increase of chemiluminescence over vehicle control was used to calculate the increase in alkaline phosphatase activity.
as §2

[3] = Homo sapiens, MCF7, agonist mode, 14C-thymidine incorporation, read-out: MCF7 Agonist EC50
[4] = Homo sapiens, MCF7, antagonist mode, 10 nM 17β-estradiol added, 14C-thymidine incorporation, read-out: MCF7 Antagonist IC50
[5] = Homo sapiens, Ishikawa, 72 h, agonist mode, alkaline phosphatase activity, 3 days
[6] = Homo sapiens, Ishikawa, 72 h, antagonist mode, 10 nM 17β-estradiol added, alkaline phosphatase activity, 3 days

T2 sequence (Q92731 whole entry): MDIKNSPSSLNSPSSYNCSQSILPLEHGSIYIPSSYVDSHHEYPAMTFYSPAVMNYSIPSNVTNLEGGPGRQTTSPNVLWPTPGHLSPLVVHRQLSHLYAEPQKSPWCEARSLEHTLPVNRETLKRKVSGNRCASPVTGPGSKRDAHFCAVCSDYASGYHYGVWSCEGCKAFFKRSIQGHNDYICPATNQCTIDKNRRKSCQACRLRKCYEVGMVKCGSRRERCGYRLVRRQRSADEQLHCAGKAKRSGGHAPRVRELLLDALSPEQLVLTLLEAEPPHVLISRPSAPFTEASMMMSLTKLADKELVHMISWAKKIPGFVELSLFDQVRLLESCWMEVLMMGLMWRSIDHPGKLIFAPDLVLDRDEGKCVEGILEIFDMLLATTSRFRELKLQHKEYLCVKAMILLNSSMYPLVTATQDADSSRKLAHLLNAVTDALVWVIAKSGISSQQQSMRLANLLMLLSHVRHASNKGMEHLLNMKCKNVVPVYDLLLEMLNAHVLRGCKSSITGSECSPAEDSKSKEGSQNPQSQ

Row | Molecule | IC50 [1] [µM] | IC50 (hER-β) | EC50 (MCF-7 cells; [3]) [µM] | IC50 (MCF-7 cells; [4]) [µM] | EC50 [2, 5] [µM] | IC50 [2, 6] [µM] | further results
1 | CC1(CO)CC=C(c2ccc(O)cc2)CC1 (centres unmarked) [Compound 25, 4-(4-Hydroxymethyl-4-methyl-cyclohex-1-enyl)-phenol] | 0.45 | 0.35 µM | 0.2 | > 10 | 0.1 | 10 | –
2 | CCC1C(C)C(CO)CC(c2ccc(OC)cc2)C1c1ccc(O)cc1 (centres unmarked) [Compound 4, 4-[2-Ethyl-4-hydroxymethyl-6-(4-methoxy-phenyl)-3-methyl-cyclohexyl]-phenol] | > 10 | 1.6 µM | – | – | – | – | EC50 (MCF-7 cells; Homo sapiens, MCF7, read-out: MCF7 Agonist EC50): > 10 µM; IC50 (MCF-7 cells; Homo sapiens, MCF7, read-out: MCF7 Antagonist IC50): > 10 µM; EC50 ([2]; Homo sapiens, Ishikawa, 72 h): > 10 µM; IC50 ([2]; Homo sapiens, Ishikawa, 72 h): > 10 µM
3 | c1ccc(C2=C(c3ccccc3)CC3COCC3C2)cc1 (centres unmarked) [Compound 52] | > 10 | 5.7 µM | > 10 | > 10 | > 10 | > 10 | –
4 | 4-(4-Hydroxy-phenyl)-[4-(2-morpholin-4-yl-ethoxy)-benzyl]-methyl-cyclohex-3-enecarboxylic acid ethyl ester [Compound 38] | – | 0.9 µM and 0.5 µM | – | – | – | – | EC50 (MCF-7 cells; agonist mode, 14C-thymidine incorporation, read-out: MCF7 Agonist EC50): > 10 µM; IC50 (MCF-7 cells; antagonist mode, 10 nM 17β-estradiol added, 14C-thymidine incorporation, read-out: MCF7 Antagonist IC50): 5 µM; EC50 ([2]; agonist mode, alkaline phosphatase activity, 3 days): > 10 µM; IC50 ([2]; antagonist mode, 10 nM 17β-estradiol added, alkaline phosphatase activity, 3 days): 2.1 µM
5 | CC1=C(C)CC(C)(CO)C(C)C1 (centres unmarked) [Compound 36] | > 10 | 6.9 µM | – | – | – | – | –
6 | OC[C@@H]1CC(c2ccccc2)=C(c2ccccc2)C[C@@H]1CO [Compound 18] | > 10 | < 10 µM | > 10 | > 10 | > 10 | > 10 | –
7 | O=C1CCCC2CC(c3ccccc3)=C(c3ccccc3)CC12 (centres unmarked) [Compound 56, 6,7-Diphenyl-3,4,4a,5,8,8a-hexahydro-2H-naphthalen-1-one] | – | – | > 10 | > 10 | > 10 | > 10 | –
8 | CC1C(CO)CC=C(c2ccc(O)cc2)C1Cc1ccc(OCCN2CCCCC2)cc1 (centres unmarked) [Compound 74] | 0.37 | 0.38 µM | – | – | – | – | –
9 | CCOC(=O)C1CC=C(c2ccc(OC)cc2)C(Cc2ccc(OCCN3CCCCC3)cc2)C1C (centres unmarked) [Compound 39] | > 10 | > 10 µM | > 10 | > 10 | > 10 | > 10 | –

More lines, main results first:

Row | IC50 [1] [µM] | IC50 (hER-β) | EC50 (MCF-7 cells; [3]) [µM] | IC50 (MCF-7 cells; [4]) [µM] | EC50 [2, 5] [µM] | IC50 [2, 6] [µM] | Molecule | further results
10 | > 10 | 4.9 µM | – | – | – | – | COc1ccc(C2=C(c3ccc(OC)cc3)C[C@H]3[C@H](CC[C@H]3O)C2)cc1 [Compound 57, 5,6-Bis-(4-methoxy-phenyl)-2,3,3a,4,7,7a-hexahydro-1H-inden-1R-ol] | –
11 | > 10 | > 10 µM | > 10 | > 10 | > 10 | > 10 | COc1ccc(C2=C(c3ccc(OC)cc3)CC(CO)C(CO)C2)cc1 (centres unmarked) [Compound 26, [6-Hydroxymethyl-3,4-bis-(4-methoxy-phenyl)-cyclohex-3-enyl]-methanol] | –
12 | 8.7 | 2 µM | > 10 | > 10 | > 10 | > 10 | COc1ccc(C2=C(c3ccc(OC)cc3)CC3C(CC[C@@H]3O)C2)cc1 (stereo partly drawn) [Compound 61, 5,6-Bis-(4-methoxy-phenyl)-2,3,3a,4,7,7a-hexahydro-1H-inden-1S-ol] | –
13 | 0.5 | 1.5 µM | > 10 | > 10 | > 10 | > 10 | CC1(CO)CCC(c2ccc(O)cc2)=C(c2ccc(O)cc2)C1 (centres unmarked) [Compound 27, (1-methyl-3,4-di(4-hydroxy-phenyl)-cyclohex-3-enyl)-methanol] | –
14 | 6.1 | 5.7 µM | – | – | – | – | CN(C)CCOc1ccc(C2=C(c3ccc(O)cc3)CCC(C)(CO)C2)cc1 (centres unmarked) [Compound 3, 4-{2-[4-(2-Dimethylamino-ethoxy)-phenyl]-4-hydroxymethyl-4-methyl-cyclohex-1-enyl}-phenol] | –
15 | 1.85 | 0.1 µM | 0.48 | > 10 | 0.7 | 4.5 | CCC1C(c2ccc(O)cc2)=C(c2ccc(OC)cc2)CC(CO)C1C (centres unmarked) [Compound 20, 4-[6-Ethyl-4-hydroxymethyl-2-(4-methoxy-phenyl)-5-methyl-cyclohex-1-enyl]-phenol] | –
